Several values for one entry are separate records, joined by “and”; a condition that tells them apart may be missing. Identical values can stand only once. Like-named read-outs stand apart in the source and are kept apart here.
What was measured:
[1] = tested on: honey bee (Apis mellifera); details: for 48-hour Mortality (%), replicates A-C: individual replicates
Method: A negative control group and a solvent control group were maintained concurrently. Three replicate test chambers were maintained in each control and treatment group, with 10 bees in each test chamber. […] The positive control test was conducted concurrently with the definitive test. […] OECD Guidelines for Testing of Chemicals. […] The cumulative mortality observed in the test groups was used to determine the LD50, LOEC, and NOEC.
The primary stock served as a dosing solution for the highest concentration (100 μg a.i./bee). […] Prior to dosing, young adult bees were removed from the frames, distributed into holding containers, and returned to the holding incubator. Approximately 50 bees were impartially placed in each of eight containers in preparation for use in the various treatment and control groups as needed during the dosing procedure.
The test chambers were stainless steel cylinders measuring approximately 9 cm in diameter and 9 cm high, with perforations for ventilation. Each end of the test chamber was covered with a disposable plastic petri dish (approximately 10 cm in diameter), and the bottom petri dish was lined with filter paper. An inverted glass vial containing approximately 10 mL of 50% (w/v) sucrose solution was inserted through the lid of the chamber. The opening of the vial was covered with gauze, which prevented leakage allowing the bees to feed ad libitum throughout the test period. The test chambers were identified by study number, dosage group, and replicate.
Prior to dosing, the bees in each holding container were immobilized with nitrogen. While anesthetized, bees were individually dosed with the appropriate dosing solution. Bees in the test substance, positive control, and solvent control groups were dosed by administering a 4 μL droplet of the appropriate dosing solution to the dorsal side of the thorax of each bee with an adjustable micropipette. Ten bees were impartially placed in each test chamber. Bees in the positive control treatment group were handled and dosed in the same manner. Solvent control bees were dosed with acetone. Negative control bees were not dosed but were handled identically to the treated bees. After dosing, test chambers were distributed into a testing incubator by indiscriminate draw.
The bees were maintained in continuous darkness during the test except during periods of dosing and observations.
The bees were observed and counted periodically to evaluate mortality and signs of toxicity or abnormal behavior.
The negative control group was used for comparison with the treatment groups.

[2] = tested on: Aphid (Schizaphis gramium); assay: Laboratory filter-paper bioassay of aphid susceptibility to nootkatone; type: in vivo; details: 1% v/v nootkatone in ethanol on filter paper, 24 hours post introduction
From the text: This example describes a laboratory bioassay in which groups of aphids were exposed to a nootkatone-containing composition to determine aphid susceptibility to nootkatone.
(§1) One milliliter of a 1% v/v nootkatone in ethanol was applied directly to 9 cm filter paper discs using a micropipette. The filter papers were allowed to dry completely and cut to the appropriate size prior to the start of the test. Pure ethanol was used as a control.
Treated and untreated filter papers were cut into 2.5 inch (6.35 cm) squares and folded into envelopes to serve as containers for the test. Five replicates of 10 aphids were tested per treatment. After the aphids were placed inside, the openings were sealed using clips so that the aphids could not escape.
Aphids were observed after 24 hours post-introduction to the test containers.
(§2) Readings were discontinued if treated mortality reached 100%, or control mortality exceeded 20%.

[3] = tested on: Red flour beetle (Tribolium castaneum); assay: Laboratory filter-paper bioassay, red flour beetles exposed to nootkatone; type: in vivo; design: unit not given here; details: 1% v/v nootkatone on filter paper
From the text: (§3) This example describes a laboratory bioassay in which groups of house flies and red flour beetles were exposed to a nootkatone-containing composition to determine their susceptibilities to low concentrations of nootkatone.
as §1, with “A negative control group (consisting of untreated replicates—ethanol only)” for “Pure ethanol”, “also assessed for comparative purposes.” for “used as a control.”
(§4) Treated and untreated filter papers were cut so that they covered the bottom of a suitable container for each test species as follows:
Flour beetles—Five replicates of 10 insects were tested. A Petri dish lid 3.54 inches (9 cm) in diameter was inverted and served as the substrate for a 2.75 inch (7 cm) treated filter paper circle. The small Petri dish bottom was inverted over the paper and had its sides treated with Fluon (or similar) to prevent climbing and force exposure with the filter paper. The entire Petri dish was enclosed with two rubber bands.
as §2

[4] = tested on: House fly (Musca domestica); assay: Laboratory filter-paper bioassay, house flies exposed to nootkatone; type: in vivo; design: key to Dead, Means: % mortality of insects (treated mortality up to 100%); KD, Means / Affected, Means: unit not given here; details: 1% v/v nootkatone on filter paper
From the text: as §3
as §1, with “A negative control group (consisting of untreated replicates—ethanol only)” for “Pure ethanol”, “also assessed for comparative purposes.” for “used as a control.”
as §4
Flies—Five replicates of 10 insects were tested. Inverted 10 ounce (295 mL) clear plastic cups with a 0.5 inch (1.27 cm) hole burned into the center of the bottom, and with the sides coated with Fluon (or similar) were used as the treatment containers. The bottoms of the containers consisted of Petri dish lids 3.54 inches ([…]) in diameter lined with a treated filter paper circle the same diameter. The cup was placed over the filter paper in the lid and both were secured in place using 2 rubber bands. The insects were introduced through the hole in the cup, and a plastic disc was placed over the opening to prevent escapes.
as §2

## C=C(C)[C@@H]1CCC2=CC(=O)C[C@@H](C)[C@]2(C)C1 [Nootkatone, nootkatone]
[1]; 6.25 μg a.i./bee topical
  48-hour Mortality Mean (%): 10%
  48-hour Mortality (%), replicates A-C: 0% and 10% and 20%
[1]; 12.5 μg a.i./bee topical
  48-hour Mortality Mean (%): 10%
  48-hour Mortality (%), replicates A-C: 0% and 10% and 20%
[1]; 25 μg a.i./bee topical
  48-hour Mortality Mean (%): 0%
  48-hour Mortality (%), replicates A-C: 0%
[1]; 50 μg a.i./bee topical
  48-hour Mortality Mean (%): 3.3%
  48-hour Mortality (%), replicates A-C: 0% (2×) and 10%
[1]; 100 μg a.i./bee topical
  48-hour Mortality Mean (%): 13.3%
  48-hour Mortality (%), replicates A-C: 10% (2×) and 20%
[1]; 48-hour mortality, highest concentration tested
  NOEC (No Observable Effect Concentration): 100 μg a.i./bee
[1]; all doses 6.25 to 100 μg a.i./bee, 48 hours, listed as Nootkatone 98%
  Mortality in the treatment groups at the end of the test: less than 50%
[2]
  Affected, Means: 100.0%
  Dead, Means: 94.0%
  KD (knockdown), Means: 6.0%
[2]; listed as nootkatone
  Dead, Means: 94%
  KD (knockdown), Means: 6%
[3]; 30 minutes post introduction
  Affected, Means: 0.0
  Dead, Means: 0.0
  KD, Means: 0.0
[3]; 1 hour post introduction
  Affected, Means: 0.0
  Dead, Means: 0.0
  KD, Means: 0.0
[3]; 4 hours post introduction
  Affected, Means: 0.0
  Dead, Means: 0.0
  KD, Means: 0.0
[3]; 24 hours post introduction
  Affected, Means: 4.2
  Dead, Means: 0.0
  KD, Means: 4.2
[3]; 48 hours post introduction
  Affected, Means: 6.4
  Dead, Means: 6.4
  KD, Means: 0.0
[3]; 72 hours post introduction
  Affected, Means: 10.9
  Dead, Means: 10.9
  KD, Means: 0.0
[4]; 30 minutes post introduction
  Affected, Means: 0.0
  Dead, Means: 0.0
  KD, Means: 0.0
[4]; 1 hour post introduction
  Affected, Means: 0.0
  Dead, Means: 0.0
  KD, Means: 0.0
[4]; 4 hours post introduction
  Affected, Means: 0.0
  Dead, Means: 0.0
  KD, Means: 0.0
[4]; 24 hours post introduction
  Affected, Means: 14.0
  Dead, Means: 2.0
  KD, Means: 12.0
[4]; 48 hours post introduction
  Affected, Means: 28.0
  Dead, Means: 28.0
  KD, Means: 0.0
[4]; 72 hours post introduction
  Affected, Means: 44.0
  Dead, Means: 42.0
  KD, Means: 2.0

Source: patent US11737459B2, “Use of nootkatone to kill sap-sucking insects” (EVOLVA SA, priority 2016, dated 2023)
